{"source": "patent US6497872B1", "about": "“Neural transplantation using proliferated multipotent neural stem cells and their progeny” (NeuroSpheres Holdings Ltd., priority 1991, dated 2002)", "system": "EGF-generated neurospheres", "assay": "Effect of growth factors on neurosphere differentiation, immunocytochemistry (Example 8)", "assay_type": "cell-based, mouse", "conditions": "20 ng/ml", "protocol": "Six to 8 days after the first passage, the neurospheres were removed and centrifuged at 400 r.p.m. The EGF-containing supernatant was removed and the pellet suspended in EGF-free complete medium containing 1% FBS. Neurospheres (approximately 0.5-1.0×10^6 cells/well) were plated on poly-L-ornithine-coated (15 μg/ml) glass coverslips in 24 well Nuclon (1.0 ml/well) culture dishes. After 24 hours in culture, the coverslips were transferred to 12 well (Costar) culture dishes containing complete medium containing 0.5% FBS. The medium was changed every 4-7 days. This differentiation procedure is referred to as the “Rapid Differentiation Paradigm” or RDP.\nSix to 8 days after the first passage, the neurospheres were removed and centrifuged at 400 r.p.m. The EGF-containing media was removed and the pellet was suspended in EGF-free complete medium containing 1% FBS. The neurospheres were mechanically dissociated into single cells with a fire-polished Pasteur pipette and centrifuged at 800 r.p.m. for 5 minutes. Between 0.5×10^6 and 1.0×10^6 cells were plated on poly-L-ornithine-coated (15 μg/ml) glass coverslips in 24 well Nuclon (1.0 ml/well) culture dishes. The EGF-free culture medium containing 1% FBS was changed every 4-7 days.\nNeurospheres were washed free of EGF by serial transfers through changes of EGF-free medium. A single neurosphere was plated onto poly-L-ornithine-coated (15 μg/ml) glass coverslips in a 24-well plate. The culture medium used was complete medium with or without I % FBS. The medium was changed every 4-7 days.\nNeurospheres were washed free of EGF by serial transfers through changes of EGF-free medium. A single neurosphere was mechanically dissociated in a 0.5 ml Eppendorf centrifuge tube and all the cells were plated onto a 35 mm culture dish. Complete medium was used with or without 1% FBS.\nThe effects of CNTF, FGF-2, BDNF, and retinoic acid on neurosphere differentiation were tested using the differentiation paradigms set forth in Example 7.\nThe effect of CNTF was assayed in paradigms 1 and 3. For both paradigms, CNTF was added either at the beginning of the experiment at a concentration of 10 ng/ml or daily at a concentration of 1 ng/ml.\nThree different antibodies directed against 04, galactocerebroside (GalC) and MBP were used to study the effect of CNTF on the oligodendrocytes of paradigm 1. CNTF had no effect on the number of 04(+) cells, but there was an increase in the number of GalC(+) and MBP(+) cells compared with the control. Thus it appears that CNTF plays a role in the maturation of oligodendrocytes.\nThe effect of FGF-2 was tested using paradigms 2 and 4. In paradigm 2, 20 ng/ml of FGF-2 was added at the beginning of the experiment and cells were stained 7 days later. FGF-2 increased the number of GFAP(+) cells and the number of NSE(+) cells.\nIn paradigm 4, 20 ng/ml of FGF-2 was added at the beginning of the experiment and assayed 7-10 days later. […] It induced two different cell types to divide, neuroblasts and bipotential progenitor cells. The neuroblast produced, on average, 6 neurons while the bipotential cell produced approximately 6 neurons and a number of astrocytes.", "key": {"[1]": {"conditions": "paradigm 2, stained 7 days later"}}, "data": [{"substance": "bFGF: basic fibroblast growth factor, recombinant human (R & D Systems)", "values": [{"measurement": "number of GFAP(+) cells", "setting": "[1]", "value": "increased"}, {"measurement": "number of NSE(+) cells", "setting": "[1]", "value": "increased"}, {"measurement": "neurons produced per bipotential cell", "setting": "paradigm 4", "value": "approximately 6 neurons"}, {"measurement": "neurons produced per neuroblast, on average", "setting": "paradigm 4", "value": 6, "unit": "neurons"}, {"measurement": "proliferation of neural stem cell progeny generated by the EGF-responsive stem cell", "setting": "paradigm 4, 7-10 days", "value": "induced the proliferation"}]}]}
